Measurements published in ChEMBL document CHEMBL1201862, “PubChem BioAssay data set” (2004).
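Each compound was tested at five concentrations against cells in 96-well plates for 48 hours. GI50 is the concentration that inhibits growth by half.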 Activity calls are given as the source filed them. Cut-off read from the data, not from the text of the source: active = GI50 up to about 1.1 µM and inactive = higher.

Legend:
Assay in all cases: inhibition of tumour cell growth, NCI panel, 48 h
SK-MEL-28 = test system: SK-MEL-28
SK-MEL-2 = test system: SK-MEL-2
SW-620 = test system: SW-620
HT-29 = test system: HT-29
RPMI-8226 = test system: RPMI-8226
SNB-75 = test system: SNB-75
DMS-273 = test system: DMS-273
A549 = test system: A549
SF-295 = test system: SF-295
NCI-H23 = test system: NCI-H23
K562 = test system: K562
KM12 = test system: KM12
OVCAR-3 = test system: OVCAR-3
ACHN = test system: ACHN
UACC-62 = test system: UACC-62
HCC 2998 = test system: HCC 2998
LOX IMVI = test system: LOX IMVI
MDA-MB-435 = test system: MDA-MB-435
BT-549 = test system: BT-549
Hs-578T = test system: Hs-578T

Structure (SMILES)	GI50 (SK-MEL-28)	GI50 (SK-MEL-2)	GI50 (SW-620)	GI50 (HT-29)	GI50 (RPMI-8226)	GI50 (SNB-75)	GI50 (DMS-273)	GI50 (A549)	GI50 (SF-295)	GI50 (NCI-H23)	GI50 (K562)	GI50 (KM12)	GI50 (OVCAR-3)	GI50 (ACHN)	GI50 (UACC-62)	GI50 (HCC 2998)	GI50 (LOX IMVI)	GI50 (MDA-MB-435)	GI50 (BT-549)	GI50 (Hs-578T)
O=[N+]([O-])c1nccn1CC(O)CN1CC1 (stereo not given)	> 100 µM (inactive)	41.6 µM (inactive)	63.8 µM (inactive)	56.6 µM (inactive)	49.4 µM (inactive)	42.8 µM (inactive)	27.4 µM (inactive)	> 100 µM (inactive)	> 100 µM (inactive)	36.4 µM (inactive)	46 µM (inactive)	66.8 µM (inactive)	25.5 µM (inactive)	29.1 µM (inactive)	44.8 µM (inactive)	–	–	–	–	–
Cc1ccc(NC(=O)CCc2nnc(S)[nH]2)cc1	> 100 µM (inactive)	> 100 µM (inactive)	> 100 µM (inactive)	> 100 µM (inactive)	> 100 µM (inactive)	83.2 µM (inactive)	> 100 µM (inactive)	> 100 µM (inactive)	> 100 µM (inactive)	> 100 µM (inactive)	> 100 µM (inactive)	> 100 µM (inactive)	> 100 µM (inactive)	> 100 µM (inactive)	17 µM (inactive)	–	–	–	–	–
COc1cc(OC)c2ssc3c(OC)cc(OC)c4ssc1c2-c43	> 100 µM (inactive)	> 100 µM (inactive)	> 100 µM (inactive)	> 100 µM (inactive)	–	31.3 µM (inactive)	> 100 µM (inactive)	> 100 µM (inactive)	> 100 µM (inactive)	> 100 µM (inactive)	> 100 µM (inactive)	> 100 µM (inactive)	> 100 µM (inactive)	> 100 µM (inactive)	> 100 µM (inactive)	> 100 µM (inactive)	> 100 µM (inactive)	–	–	–
CN(C)CC(C)(C)C(/C=C/c1ccccc1)=N\Nc1ccccc1	1.89 µM (inactive)	3.6 µM (inactive)	0.375 µM (active)	11 µM (inactive)	1.68 µM (inactive)	14.6 µM (inactive)	0.335 µM (active)	0.385 µM (active)	0.131 µM (active)	10.6 µM (inactive)	0.238 µM (active)	0.579 µM (active)	1.44 µM (inactive)	0.132 µM (active)	0.0527 µM (active)	–	0.296 µM (active)	–	–	–
N#C/C(=C1\SC(/N=N/c2ccccc2)C(=O)N1c1ccccc1)c1nc2ccccc2[nH]1 (stereo not given)	> 100 µM (inactive)	68.5 µM (inactive)	> 100 µM (inactive)	> 100 µM (inactive)	–	36.7 µM (inactive)	45.7 µM (inactive)	> 100 µM (inactive)	61.2 µM (inactive)	> 100 µM (inactive)	36.3 µM (inactive)	–	68.1 µM (inactive)	> 100 µM (inactive)	> 100 µM (inactive)	–	> 100 µM (inactive)	–	–	–
Cc1csc2nc3c(cnn3C)c(=S)n12	> 100 µM (inactive)	41.9 µM (inactive)	> 100 µM (inactive)	84.5 µM (inactive)	> 100 µM (inactive)	28.1 µM (inactive)	–	> 100 µM (inactive)	> 100 µM (inactive)	> 100 µM (inactive)	> 100 µM (inactive)	> 100 µM (inactive)	> 100 µM (inactive)	44.5 µM (inactive)	> 100 µM (inactive)	> 100 µM (inactive)	51.6 µM (inactive)	> 100 µM (inactive)	39.5 µM (inactive)	12.8 µM (inactive)
